According to PMC6281421, “Anticancer activity of 2’-hydroxyflavanone towards lung cancer” (Oncotarget, 2018):

Assays:
[1] = target: T1, recombinant RLIP (RLIP76) (Homo sapiens, UniProt Q15311); assay: DNP-SG affinity resin binding and elution with free DNP-SG; details: 0.2 mM DNP-SG, 10 mM ATP, 10 mM MgCl2; also stimulates the ATPase as allocrite
T1 construct: gene RALBP1; fragments incl; 38 kDa present
T1 sequence (Q15311 1-655): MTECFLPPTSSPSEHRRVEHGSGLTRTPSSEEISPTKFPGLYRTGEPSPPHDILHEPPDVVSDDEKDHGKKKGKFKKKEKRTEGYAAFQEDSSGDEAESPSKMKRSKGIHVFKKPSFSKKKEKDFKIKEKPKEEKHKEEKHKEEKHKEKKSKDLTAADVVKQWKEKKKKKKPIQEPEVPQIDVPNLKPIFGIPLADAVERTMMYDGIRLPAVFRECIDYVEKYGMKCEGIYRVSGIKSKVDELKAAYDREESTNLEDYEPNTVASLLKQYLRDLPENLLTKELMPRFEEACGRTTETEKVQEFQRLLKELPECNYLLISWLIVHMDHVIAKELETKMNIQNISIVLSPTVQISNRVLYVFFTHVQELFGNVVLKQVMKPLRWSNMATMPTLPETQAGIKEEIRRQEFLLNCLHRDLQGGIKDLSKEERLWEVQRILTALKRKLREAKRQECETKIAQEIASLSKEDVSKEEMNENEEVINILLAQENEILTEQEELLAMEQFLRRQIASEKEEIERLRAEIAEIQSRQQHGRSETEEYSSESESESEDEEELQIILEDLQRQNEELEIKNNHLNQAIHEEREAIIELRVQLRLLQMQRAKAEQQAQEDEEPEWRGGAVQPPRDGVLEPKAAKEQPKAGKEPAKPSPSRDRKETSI

[2] = target: T2, Rlip (RLIP76) purified from H358 and H1618 cells (Homo sapiens, UniProt Q15311); assay: […]-DOX uptake into Rlip proteoliposomes, rapid filtration; format: biochemical; details: read-out: % inhibition of DOX transport at 20 μM
T2 construct: gene RALBP1
T2 sequence (Q15311 2-655): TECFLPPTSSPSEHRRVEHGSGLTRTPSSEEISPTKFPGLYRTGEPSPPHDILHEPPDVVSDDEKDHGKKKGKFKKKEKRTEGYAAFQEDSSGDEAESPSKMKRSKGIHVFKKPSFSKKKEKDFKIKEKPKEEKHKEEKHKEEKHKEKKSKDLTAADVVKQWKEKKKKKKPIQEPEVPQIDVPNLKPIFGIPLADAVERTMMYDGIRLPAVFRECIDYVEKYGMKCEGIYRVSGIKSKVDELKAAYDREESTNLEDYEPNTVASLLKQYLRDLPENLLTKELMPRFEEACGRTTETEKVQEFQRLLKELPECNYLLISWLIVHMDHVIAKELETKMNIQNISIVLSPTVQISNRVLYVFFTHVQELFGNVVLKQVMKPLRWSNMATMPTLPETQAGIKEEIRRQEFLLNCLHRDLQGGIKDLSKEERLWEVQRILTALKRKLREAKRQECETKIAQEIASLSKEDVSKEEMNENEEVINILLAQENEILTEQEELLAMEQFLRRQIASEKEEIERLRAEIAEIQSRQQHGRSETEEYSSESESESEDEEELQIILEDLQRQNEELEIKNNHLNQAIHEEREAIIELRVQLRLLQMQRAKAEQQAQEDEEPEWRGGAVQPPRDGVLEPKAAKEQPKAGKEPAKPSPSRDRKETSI

inhibition at 20 µM [2] [%]	Structure (SMILES)	DNP-SG affinity resin binding and elution with free DNP-SG [1]
	N[C@@H](CCC(=O)N[C@@H](CSc1ccc([N+](=O)[O-])cc1[N+](=O)[O-])C(=O)NCC(=O)O)C(=O)O [DNP-SG, dinitrophenyl-S-glutathione]	the same major Rlip protein bands were observed in the 2HF eluate as in the DNP-SG eluate
22	O=C1CC(c2ccccc2O)Oc2ccccc21 (centres unmarked) [2HF, 2'-hydroxyflavanone]	
